Source: the supplement of paper PMC10307832

What was measured:
Experiment in all cases: relative viability (nuclei count vs DMSO), 5 days (fraction); higher = more cells survive
NCI-H1915 = tested on: NCI-H1915
Outline: (§1)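 Lung cancer cell lines in 1536-well plates got either a single drug or a fixed anchor-drug dose together with five library-drug doses (not always all listed) in √10 steps, by pin tool, on the day after seeding. Nuclei were counted after 5 days, and relative viability is the treated-to-vehicle ratio of nuclei counts. Values are medians of duplicate plates.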

NCI-H1734 = tested on: NCI-H1734
Outline: as §1

NCI-H661 = tested on: NCI-H661
Outline: as §1

HCC-44 = tested on: HCC-44
Outline: as §1

EKVX = tested on: EKVX
Outline: as §1

HOP-62 = tested on: HOP-62
Outline: as §1

NCI-H2087 = tested on: NCI-H2087
Outline: as §1

LOU-NH91 = tested on: LOU-NH91
Outline: as §1

SK-MES-1 = tested on: SK-MES-1
Outline: as §1

NCI-H358 = tested on: NCI-H358
Outline: as §1

ChaGo-K-1 = tested on: ChaGo-K-1
Outline: as §1

HCC-78 = tested on: HCC-78
Outline: as §1

HCC-366 = tested on: HCC-366
Outline: as §1

EPLC-272H = tested on: EPLC-272H
Outline: as §1

NCI-H2023 = tested on: NCI-H2023
Outline: as §1

NCI-H1650 = tested on: NCI-H1650
Outline: as §1

NCI-H3122 = tested on: NCI-H3122
Outline: as §1

NCI-H1395 = tested on: NCI-H1395
Outline: as §1

COR-L23 = tested on: COR-L23
Outline: as §1

NCI-H650 = tested on: NCI-H650
Outline: as §1

A-427 = tested on: A-427
Outline: as §1

NCI-H596 = tested on: NCI-H596
Outline: as §1

NCI-H838 = tested on: NCI-H838
Outline: as §1

Which results are given for `Cc1cnc(-c2cnc(NCCNc3ccc(C#N)cn3)nc2-c2ccc(Cl)cc2Cl)[nH]1` + N=C(N)NC(=N)NCCc1ccccc1 [Phenformin] (partner 250 µM)?
relative viability (NCI-H1915; first compound 0.08 µM): 0.378; relative viability (NCI-H1915; first compound 0.253 µM): 0.346; relative viability (NCI-H1915; first compound 0.8 µM): 0.356; relative viability (NCI-H1915; first compound 2.53 µM): 0.389; relative viability (NCI-H1734; first compound 0.08 µM): 0.49; relative viability (NCI-H1734; first compound 0.253 µM): 0.379; relative viability (NCI-H1734; first compound 0.8 µM): 0.391; relative viability (NCI-H1734; first compound 2.53 µM): 0.355; relative viability (NCI-H661; first compound 0.08 µM): 0.298; relative viability (NCI-H661; first compound 0.253 µM): 0.295; relative viability (NCI-H661; first compound 0.8 µM): 0.287; relative viability (NCI-H661; first compound 2.53 µM): 0.314; relative viability (HCC-44; first compound 0.08 µM): 0.209; relative viability (HCC-44; first compound 0.253 µM): 0.192; relative viability (HCC-44; first compound 0.8 µM): 0.182; relative viability (HCC-44; first compound 2.53 µM): 0.139; relative viability (EKVX; first compound 0.08 µM): 0.192; relative viability (EKVX; first compound 0.253 µM): 0.226; relative viability (EKVX; first compound 0.8 µM): 0.196; relative viability (EKVX; first compound 2.53 µM): 0.222; relative viability (HOP-62; first compound 0.08 µM): 0.754; relative viability (HOP-62; first compound 0.253 µM): 0.596; relative viability (HOP-62; first compound 0.8 µM): 0.685; relative viability (HOP-62; first compound 2.53 µM): 0.427; relative viability (NCI-H2087; first compound 0.08 µM): 0.571; relative viability (NCI-H2087; first compound 0.253 µM): 0.379; relative viability (NCI-H2087; first compound 0.8 µM): 0.442; relative viability (NCI-H2087; first compound 2.53 µM): 0.329; relative viability (LOU-NH91; first compound 0.08 µM): 0.769; relative viability (LOU-NH91; first compound 0.253 µM): 0.674; relative viability (LOU-NH91; first compound 0.8 µM): 0.756; relative viability (LOU-NH91; first compound 2.53 µM): 0.567; relative viability (SK-MES-1; first compound 0.08 µM): 0.643; relative viability (SK-MES-1; first compound 0.253 µM): 0.648; relative viability (SK-MES-1; first compound 0.8 µM): 0.72; relative viability (SK-MES-1; first compound 2.53 µM): 0.584; relative viability (NCI-H358; first compound 0.08 µM): 0.34; relative viability (NCI-H358; first compound 0.253 µM): 0.307; relative viability (NCI-H358; first compound 0.8 µM): 0.336; relative viability (NCI-H358; first compound 2.53 µM): 0.299; relative viability (ChaGo-K-1; first compound 0.08 µM): 0.493; relative viability (ChaGo-K-1; first compound 0.253 µM): 0.375; relative viability (ChaGo-K-1; first compound 0.8 µM): 0.44; relative viability (ChaGo-K-1; first compound 2.53 µM): 0.413; relative viability (HCC-78; first compound 0.08 µM): 0.804; relative viability (HCC-78; first compound 0.253 µM): 0.675; relative viability (HCC-78; first compound 0.8 µM): 0.636; relative viability (HCC-78; first compound 2.53 µM): 0.645; relative viability (HCC-366; first compound 0.08 µM): 0.606; relative viability (HCC-366; first compound 0.253 µM): 0.455; relative viability (HCC-366; first compound 0.8 µM): 0.557; relative viability (HCC-366; first compound 2.53 µM): 0.507; relative viability (EPLC-272H; first compound 0.08 µM): 0.333; relative viability (EPLC-272H; first compound 0.253 µM): 0.318; relative viability (EPLC-272H; first compound 0.8 µM): 0.315; relative viability (EPLC-272H; first compound 2.53 µM): 0.316; relative viability (NCI-H2023; first compound 0.08 µM): 0.436; relative viability (NCI-H2023; first compound 0.253 µM): 0.413; relative viability (NCI-H2023; first compound 0.8 µM): 0.422; relative viability (NCI-H2023; first compound 2.53 µM): 0.33; relative viability (NCI-H1650; first compound 0.08 µM): 0.497; relative viability (NCI-H1650; first compound 0.253 µM): 0.428; relative viability (NCI-H1650; first compound 0.8 µM): 0.384; relative viability (NCI-H1650; first compound 2.53 µM): 0.276; relative viability (NCI-H3122; first compound 0.08 µM): 0.367; relative viability (NCI-H3122; first compound 0.8 µM): 0.383; relative viability (NCI-H3122; first compound 2.53 µM): 0.327; relative viability (NCI-H1395; first compound 0.08 µM): 0.483; relative viability (NCI-H1395; first compound 0.253 µM): 0.424; relative viability (NCI-H1395; first compound 0.8 µM): 0.45; relative viability (NCI-H1395; first compound 2.53 µM): 0.431; relative viability (COR-L23; first compound 0.08 µM): 0.493; relative viability (COR-L23; first compound 0.253 µM): 0.449; relative viability (COR-L23; first compound 2.53 µM): 0.408; relative viability (NCI-H650; first compound 0.08 µM): 0.468; relative viability (NCI-H650; first compound 0.253 µM): 0.438; relative viability (NCI-H650; first compound 0.8 µM): 0.489; relative viability (NCI-H650; first compound 2.53 µM): 0.417; relative viability (A-427; first compound 0.08 µM): 0.307; relative viability (A-427; first compound 0.253 µM): 0.327; relative viability (A-427; first compound 0.8 µM): 0.378; relative viability (A-427; first compound 2.53 µM): 0.342; relative viability (NCI-H596; first compound 0.08 µM): 0.834; relative viability (NCI-H596; first compound 0.253 µM): 0.763; relative viability (NCI-H596; first compound 0.8 µM): 0.595; relative viability (NCI-H596; first compound 2.53 µM): 0.761; relative viability (NCI-H838; first compound 0.08 µM): 0.634; relative viability (NCI-H838; first compound 0.253 µM): 0.601; relative viability (NCI-H838; first compound 0.8 µM): 0.594; relative viability (NCI-H838; first compound 2.53 µM): 0.709
